How the values were obtained:
[1] = Long-term stability experiment of amorphous substance; type: physicochemical; conditions: for purity (HPLC): Long term
Procedure: Referring to ICH Q1A stability testing of new drug substances and products, the amorphous substance of the compound of formula I prepared in example 1 was subjected to a long-term stability experiment (experimental condition: 25±2° C., RH 60%=5%) and an accelerated stability experiment (experimental condition: 40±2° C., RH 75%=5%). The purity of the sample at different times was detected by HPLC under condition 2 to evaluate the physicochemical stability of the amorphous substance of the compound of formula I. The results were as shown in Table 18.
Condition 2: • Instruments: Agilent 1260; • Chromatographic column: C18 (150 mm×4.6 mm×3.5 μm); • column temperature: 45° C.; • Mobile phase: binary mobile phase system, mobile phase A was a 10 mM aqueous ammonium acetate solution (preparation method: ammonium acetate was added into purified water, and mixed evenly, and pH value was adjusted to 4.50±0.05 with acetic acid), mobile phase B was acetonitrile; • Elution mode: gradient elution, with specific procedures as shown in Table 17; • flow rate: 1.0 mL/min; • Injection volume: 5 μL; • Detection wavelength: 270 nm; • Data acquisition: OpenLab CDS2 software.

[2] = High temperature stability experiment of amorphous substance (60° C.); type: physicochemical; conditions: 60° C. in the dark
Procedure: The amorphous substance of the compound of formula I prepared in example 1 was stored at 60° C. in the dark for 30 days, and the purity percentages were detected by HPLC on day 0, day 5, day 10 and day 30, respectively.

With Cc1ncsc1-c1ccc(CNC(=O)[C@@H]2C[C@@H](O)CN2C(=O)[C@@H](NC(=O)COCCCCOc2ccc(-c3ccc(N4C(=S)N(c5ccc(C#N)c(C(F)(F)F)c5F)C(=O)C4(C)C)cn3)cc2)C(C)(C)C)cc1 the “purity (HPLC)” value ([1]; 3 months) was 99.36%, the “purity (HPLC)” value ([1]; 6 months) was 99.37% and the “purity (HPLC)” value ([1]; 9 months) was 99.29%. The “purity (HPLC)” value ([1]; 25±2° C., RH 60%=5%, 0 month) was 99.25%, the stability ([1]; long-term, accelerated and high-temperature stability experiments) was “excellent stability” and the Purity % ([2]; 0 day) was 99.35%. For the same molecule, the Purity % ([2]; 5 days) was 99.34%, the Purity % ([2]; 10 days) was 99.27% and the Purity % ([2]; 30 days) was 99.34%.
